Measurements reported in patent publication US20030199692A1, “Propanoic acid derivatives that inhibit the binding of integrins to their receptors” (priority 1999, published 2003).

biological target: T1, α4β1 integrin (Homo sapiens, UniProt P05556+P13612); experiment: Inhibition of adhesion of calcein AM-labeled Ramos cells to CS1 (fibronectin) peptide-conjugated ovalbumin; format: cell-based; conditions: Ramos; Table 2; compound at a concentration of 100 μM; read-out: % A (percent inhibition of cell adhesion)
T1 construct: endogenous in cells; host or cells: Ramos cells
T1 sequence (P13612 34-1032): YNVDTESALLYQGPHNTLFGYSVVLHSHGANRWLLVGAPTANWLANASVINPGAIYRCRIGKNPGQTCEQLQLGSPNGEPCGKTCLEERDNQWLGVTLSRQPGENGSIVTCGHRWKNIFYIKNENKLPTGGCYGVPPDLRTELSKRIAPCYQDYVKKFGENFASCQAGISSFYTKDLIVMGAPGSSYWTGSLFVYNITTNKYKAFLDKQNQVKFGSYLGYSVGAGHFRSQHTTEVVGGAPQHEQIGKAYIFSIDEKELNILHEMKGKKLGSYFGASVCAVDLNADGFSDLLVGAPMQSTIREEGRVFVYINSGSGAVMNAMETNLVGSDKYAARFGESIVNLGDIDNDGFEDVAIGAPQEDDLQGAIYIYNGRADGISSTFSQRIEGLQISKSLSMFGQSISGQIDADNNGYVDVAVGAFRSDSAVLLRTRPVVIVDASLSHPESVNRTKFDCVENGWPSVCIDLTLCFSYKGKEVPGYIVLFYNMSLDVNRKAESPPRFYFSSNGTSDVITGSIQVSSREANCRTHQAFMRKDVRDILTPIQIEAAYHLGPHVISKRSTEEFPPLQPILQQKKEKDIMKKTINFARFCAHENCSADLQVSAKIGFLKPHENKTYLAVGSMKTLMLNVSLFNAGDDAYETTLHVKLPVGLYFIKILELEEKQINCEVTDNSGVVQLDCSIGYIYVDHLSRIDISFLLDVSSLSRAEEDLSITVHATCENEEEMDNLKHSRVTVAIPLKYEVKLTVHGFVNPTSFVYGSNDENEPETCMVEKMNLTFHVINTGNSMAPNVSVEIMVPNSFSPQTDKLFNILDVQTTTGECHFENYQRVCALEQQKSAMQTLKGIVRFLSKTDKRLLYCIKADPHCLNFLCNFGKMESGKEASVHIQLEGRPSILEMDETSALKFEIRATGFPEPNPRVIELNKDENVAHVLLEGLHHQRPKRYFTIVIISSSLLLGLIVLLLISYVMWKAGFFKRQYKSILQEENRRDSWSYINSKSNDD
T1 sequence (P05556 21-798): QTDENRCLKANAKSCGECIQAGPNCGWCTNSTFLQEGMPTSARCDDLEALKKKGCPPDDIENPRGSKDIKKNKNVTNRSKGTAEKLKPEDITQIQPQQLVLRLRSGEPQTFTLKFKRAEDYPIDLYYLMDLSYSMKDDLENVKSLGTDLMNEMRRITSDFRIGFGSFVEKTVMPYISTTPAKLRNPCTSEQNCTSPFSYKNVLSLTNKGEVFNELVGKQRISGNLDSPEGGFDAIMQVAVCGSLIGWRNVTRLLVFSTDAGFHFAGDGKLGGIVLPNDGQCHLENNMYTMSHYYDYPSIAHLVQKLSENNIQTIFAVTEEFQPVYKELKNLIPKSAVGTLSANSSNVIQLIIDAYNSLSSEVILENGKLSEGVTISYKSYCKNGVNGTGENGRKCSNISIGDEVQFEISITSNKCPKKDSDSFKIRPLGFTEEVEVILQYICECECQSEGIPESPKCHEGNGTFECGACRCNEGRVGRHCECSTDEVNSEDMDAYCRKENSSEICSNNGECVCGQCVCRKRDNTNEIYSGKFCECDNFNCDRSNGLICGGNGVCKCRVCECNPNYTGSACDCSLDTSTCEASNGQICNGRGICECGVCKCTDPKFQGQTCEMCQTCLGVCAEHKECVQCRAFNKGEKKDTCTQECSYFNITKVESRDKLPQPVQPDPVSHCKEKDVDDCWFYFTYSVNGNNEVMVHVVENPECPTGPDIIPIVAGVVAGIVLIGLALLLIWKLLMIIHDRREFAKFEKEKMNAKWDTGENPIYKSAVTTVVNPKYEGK
Protocol: The ability of compounds of the present invention to inhibit binding is determined by a procedure in which a 26-amino acid peptide containing the CS1 sequence of fibronectin with an N-terminal Cys ([…]) was coupled to maleimide activated ovalbumin. Bovine serum albumin (BSA) and CS1 conjugated ovalbumin were coated onto 96-well polystyrene plates at 0.5 mg/ml in TBS (50 mM Tris, pH 7.5; 150 mM NaCl) at 4° C. for 16 hours. The plates were washed three times with TBS and blocked with TBS containing 3% BSA at room temperature for 4 hours. Blocked plates were washed three times in binding buffer (TBS; 1 mM MgCl2; 1 mM CaCl2; 1 mM MnCl2) prior to assay. Ramos cells fluorescently labeled with calcein AM were resuspended in binding buffer (10^7 cells/ml) and diluted 1:2 with same buffer with or without compound. The cells were added immediately to the wells (2.5×10^5 cells/well) and incubated for 30 minutes at 37° C. Following three washes with binding buffer, adherent cells were lysed and quantitated using a fluorometer. IC50 is defined as the dose required to give 50% inhibition. MS in Table 3 stands for Mass Spec. nd stands for not determined in the Tables. A stands for inhibition in Table 2, and the percent inhibition indicates the inhibition of cell adhesion when compound is included in the assay at a concentration of 100 μM. The lower the IC50 value and the greater the percentage of inhibition, the more efficient the compound is at prevention of cell adhesion.

**Q.** `CCCC[C@@H](C(=O)N[C@@H](CC(=O)O)c1ccc2c(c1)OCO2)N1CCCN(Cc2cccs2)C1=O` [(3S)-3-(1,3-benzodioxol-5-yl)-3-(((2S)-2-(2-oxo-3-(2-thienylmethyl)tetrahydro-1(2H)-pyrimidinyl)hexanoyl)amino)propanoic acid] was tested. Which inhibition at 100 µM did it give?
**A.** Its inhibition at 100 µM is 100%.

**Q.** Which inhibition at 100 µM does the source give for `CCCC[C@@H](C(=O)N[C@@H](CC(=O)O)c1ccc2c(c1)OCO2)N1CCC(c2cccs2)N(Cc2cccs2)C1=O` (stereo partly drawn) [(3S)-3-(1,3-benzodioxol-5-yl)-3-(((2S)-2-(2-oxo-4-(2-thienyl)-3-(2-thienylmethyl)tetrahydro-1(2H)-pyrimidinyl)hexanoyl)amino)propanoic acid] here?
**A.** The inhibition at 100 µM was 100%.

same assay, conditions: Table 1; Ramos cell adhesion to CS1-conjugated ovalbumin, 30 minutes at 37° C.

**Q.** How did the IC50 turn out when `CCCCC(C(=O)N[C@@H](CC(=O)O)c1ccc2c(c1)OCO2)n1cc(C)cc(Cc2ccccc2)c1=O` (mixture of isomers) [Compound 8, (3S)-3-(1,3-benzodioxol-5-yl)-3-((2R,S)-2-(3-benzyl-5-methyl-2-oxo-1(2H)-pyridinyl)hexanoylamino)propanoic acid] was run?
**A.** The IC50 was 7 nM.

**Q.** Which IC50 does the source give for `CCCCC(C(=O)N[C@@H](CC(=O)O)c1ccc2c(c1)CCO2)n1cc(C)cc(Cc2ccccc2)c1=O` (mixture of isomers) [Compound 12, (3S)-3-((2R,S)-2-(3-benzyl-5-methyl-2-oxo-1(2H)-pyridinyl)hexanoylamino)-3-(2,3-dihydro-1-benzofuran-5-yl)propanoic acid] here?
**A.** Its IC50 is 40 nM.

**Q.** Which IC50 does the source give for `CCCCC(C(=O)N[C@@H](CC(=O)O)c1ccc(C)cc1)n1cc(C)cc(Cc2ccccc2)c1=O` (mixture of isomers) [Compound 13, (3S)-3-((2R,S)-2-(3-benzyl-5-methyl-2-oxo-1(2H)-pyridinyl)hexanoylamino)-3-(4-methylphenyl)propanoic acid] here?
**A.** The IC50 was 70 nM.

**Q.** How did the IC50 turn out when `CCCCC(C(=O)N[C@@H](CC(=O)O)c1ccc(F)cc1)n1cc(C)cc(Cc2ccccc2)c1=O` (mixture of isomers) [Compound 14, (3S)-3-((2R,S)-2-(3-benzyl-5-methyl-2-oxo-1(2H)-pyridinyl)hexanoylamino)-3-(4-fluorophenyl)propanoic acid] was run?
**A.** The IC50 was 150 nM.

**Q.** For `CCCCC(C(=O)N[C@@H](CC(=O)O)c1ccc2c(c1)OCO2)n1cc(C)cc(Cc2ccc(OC)cc2)c1=O` (mixture of isomers) [Compound 15, (3S)-3-(1,3-benzodioxol-5-yl)-3-((2R,S)-2-(3-(4-methoxybenzyl)-5-methyl-2-oxo-1(2H)-pyridinyl)hexanoylamino)propanoic acid], which IC50 is on record?
**A.** The IC50 was 30 nM.

**Q.** How did the IC50 turn out when `CCCCC(C(=O)N[C@@H](CC(=O)O)c1ccc2c(c1)OCO2)n1cc(C)cc(Cc2ccc(C)cc2)c1=O` (mixture of isomers) [Compound 16, (3S)-3-(1,3-benzodioxol-5-yl)-3-((2R,S)-2-(3-(4-methylbenzyl)-5-methyl-2-oxo-1(2H)-pyridinyl)hexanoylamino)propanoic acid] was run?
**A.** The IC50 was 35 nM.

**Q.** `CCCCC(C(=O)N[C@@H](CC(=O)O)c1ccc2c(c1)OCO2)n1cc(C)cc(Cc2ccc(F)cc2)c1=O` (mixture of isomers) [Compound 17, (3S)-3-(1,3-benzodioxol-5-yl)-3-((2R,S)-2-(3-(4-fluorobenzyl)-5-methyl-2-oxo-1(2H)-pyridinyl)hexanoylamino)propanoic acid] was tested. Which IC50 did it give?
**A.** Its IC50 is 60 nM.

**Q.** How did the IC50 turn out when `CCCCC(C(=O)N[C@@H](CC(=O)O)c1ccc2c(c1)OCO2)n1cc(C)cc(Cc2cccc(Cl)c2)c1=O` (mixture of isomers) [Compound 19, (3S)-3-(1,3-benzodioxol-5-yl)-3-((2R,S)-2-(3-(3-chlorobenzyl)-5-methyl-2-oxo-1(2H)-pyridinyl)hexanoylamino)propanoic acid] was run?
**A.** The IC50 was 6 nM.

same assay, conditions: Table 2; Ramos cell adhesion to CS1-conjugated ovalbumin, 30 minutes at 37° C.

**Q.** For `CCCC[C@@H](C(=O)N[C@@H](CC(=O)O)c1ccc2c(c1)OCO2)N1CCCN(Cc2cccs2)C1=O` [(3S)-3-(1,3-benzodioxol-5-yl)-3-(((2S)-2-(2-oxo-3-(2-thienylmethyl)tetrahydro-1(2H)-pyrimidinyl)hexanoyl)amino)propanoic acid], which IC50 is on record?
**A.** Its IC50 is 5 nM.

**Q.** How did the IC50 turn out when `CCCC[C@@H](C(=O)N[C@@H](CC(=O)O)c1ccc2c(c1)OCO2)N1CCC(c2cccs2)N(Cc2cccs2)C1=O` (stereo partly drawn) [(3S)-3-(1,3-benzodioxol-5-yl)-3-(((2S)-2-(2-oxo-4-(2-thienyl)-3-(2-thienylmethyl)tetrahydro-1(2H)-pyrimidinyl)hexanoyl)amino)propanoic acid] was run?
**A.** Its IC50 is 50 nM.

same assay, conditions: Table 3; Ramos cell adhesion to CS1-conjugated ovalbumin, 30 minutes at 37° C.

**Q.** How did the IC50 turn out when `CCCCC(C(=O)N[C@@H](CC(=O)O)c1ccc2c(c1)OCO2)n1cc(Cc2ccccc2)ccc1=O` (stereo partly drawn) [(3S)-3-(1,3-Benzodioxol-5-yl)-3-({2-[2-oxo-5-(phenylmethyl)-1(2H)-pyridinyl]hexanoyl}amino)propanoic acid] was run?
**A.** Its IC50 is 40 nM.

**Q.** `O=C(O)C[C@H](NC(=O)C1(n2cccc(Cc3ccccc3)c2=O)CCCCC1)c1ccc2c(c1)OCO2` [(3S)-3-(1,3-Benzodioxol-5-yl)-3-[({1-[2-oxo-3-(phenylmethyl)-1(2H)-pyridinyl]cyclohexyl}carbonyl)amino]propanoic acid] was tested. Which IC50 did it give?
**A.** The IC50 was 50000 nM.

**Q.** How did the IC50 turn out when `O=C(O)C[C@H](NC(=O)Cn1cccc(Cc2ccccc2)c1=O)c1ccc2c(c1)OCO2` [(3S)-3-(1,3-benzodioxol-5-yl)-3-({2-[2-oxo-3-(phenylmethyl)-1(2H)-pyridinyl]acetyl}amino)propanoic acid] was run?
**A.** The IC50 was 450 nM.

**Q.** For `CCC(C(=O)N[C@@H](CC(=O)O)c1ccc2c(c1)OCO2)n1cccc(Cc2ccccc2)c1=O` (stereo partly drawn) [(3S)-3-(1,3-benzodioxol-5-yl)-3-({2-[2-oxo-3-(phenylmethyl)-1(2H)-pyridinyl]butanoyl}amino)propanoic acid], which IC50 is on record?
**A.** The IC50 was 30 nM.

**Q.** Which IC50 does the source give for `CCCC(C(=O)N[C@@H](CC(=O)O)c1ccc2c(c1)OCO2)n1cccc(Cc2ccccc2)c1=O` (stereo partly drawn) [(3S)-3-(1,3-benzodioxol-5-yl)-3-({2-[2-oxo-3-(phenylmethyl)-1(2H)-pyridinyl]pentanoyl}amino)propanoic acid] here?
**A.** The IC50 was 60 nM.

**Q.** For `CCCCC(C(=O)N[C@@H](CC(=O)O)c1ccc2c(c1)OCO2)n1c(=O)c(Cc2ccccc2)cc2ccccc21` (stereo partly drawn) [(3S)-3-(1,3-benzodioxol-5-yl)-3-({2-[2-oxo-3-(phenylmethyl)-1(2H)-quinolinyl]hexanoyl}amino)propanoic acid], which IC50 is on record?
**A.** Its IC50 is 2000 nM.

**Q.** For `O=C(O)C[C@H](NC(=O)Cn1c(=O)n(Cc2ccccc2)c2ccccc21)c1ccc2c(c1)OCO2` [(3S)-3-(1,3-benzodioxol-5-yl)-3-({2-[2-oxo-3-(phenylmethyl)-2,3-dihydro-1H-benzimidazol-1-yl]acetyl}amino)propanoic acid], which IC50 is on record?
**A.** Its IC50 is 200 nM.

**Q.** With `CCCCC(C(=O)N[C@@H](CC(=O)O)c1ccc2c(c1)OCO2)n1c(=O)n(Cc2ccccc2)c2ccccc21` (stereo partly drawn) [(3S)-3-(1,3-benzodioxol-5-yl)-3-({2-[2-oxo-3-(phenylmethyl)-2,3-dihydro-1H-benzimidazol-1-yl]hexanoyl}amino)propanoic acid] as the compound, how does the IC50 read?
**A.** Its IC50 is 70 nM.

**Q.** Which IC50 does the source give for `CCCCC(C(=O)N[C@@H](CC(=O)O)c1ccc2c(c1)OCO2)n1ccn(Cc2ccccc2)c1=O` (stereo partly drawn) [(3S)-3-(1,3-benzodioxol-5-yl)-3-({2-[2-oxo-3-(phenylmethyl)-2,3-dihydro-1H-imidazol-1-yl]hexanoyl}amino)propanoic acid] here?
**A.** The IC50 was 60 nM.

**Q.** How did the IC50 turn out when `CCCCC(C(=O)N[C@@H](CC(=O)O)c1ccc2c(c1)OCO2)N1C(=O)N(Cc2ccccc2)Cc2ccccc21` (stereo partly drawn) [(3S)-3-(1,3-benzodioxol-5-yl)-3-({2-[2-oxo-3-(phenylmethyl)-3,4-dihydro-1(2H)-quinazolinyl]hexanoyl}amino)propanoic acid] was run?
**A.** The IC50 was 400 nM.

**Q.** With `CCCCC(C(=O)N[C@@H](CC(=O)O)c1ccc2c(c1)OCO2)n1cccc(NCc2cccs2)c1=O` (stereo partly drawn) [(3S)-3-(1,3-benzodioxol-5-yl)-3-({2-[2-oxo-3-[(2-thiophenylmethyl)amino]-1(2H)-pyridinyl]hexanoyl}amino)propanoic acid] as the compound, how does the IC50 read?
**A.** Its IC50 is 1300 nM.

**Q.** How did the IC50 turn out when `O=C(O)C[C@H](NC(=O)Cc1cccc(Oc2ccccc2)c1)c1ccc2c(c1)OCO2` [(3S)-3-(1,3-benzodioxol-5-yl)-3-({2-[3-(phenyloxy)phenyl]acetyl}amimo)-propanoic acid] was run?
**A.** Its IC50 is over 100000 nM.

**Q.** For `CCCCC(C(=O)N[C@@H](CC(=O)O)c1ccc2c(c1)OCO2)n1cc(C)cc(Cc2ccccc2Cl)c1=O` (stereo partly drawn) [(3S)-3-(1,3-benzodioxol-5-yl)-3-({2-[3-[(2-chlorophenyl)methyl]-5-methyl-2-oxo-1(2H)-pyridinyl]hexanoyl}amino)propanoic acid], which IC50 is on record?
**A.** Its IC50 is 10 nM.

**Q.** `CCCCC(C(=O)N[C@@H](CC(=O)O)c1ccc2c(c1)OCO2)n1nc(C)cc(Cc2ccccc2)c1=O` (stereo partly drawn) [(3S)-3-(1,3-benzodioxol-5-yl)-3-({2-[3-methyl-6-oxo-5-(phenylmethyl)-1(6H)-pyridazinyl]hexanoyl}amino)propanoic acid] was tested. Which IC50 did it give?
**A.** The IC50 was 60 nM.

**Q.** `CCCC[C@@H](C(=O)N[C@@H](CC(=O)O)c1ccc2c(c1)OCO2)n1c(=O)c2ccccc2n(Cc2ccccc2)c1=O` [(3S)-3-(1,3-benzodioxol-5-yl)-3-({(2S)-2-[2,4-dioxo-1-(phenylmethyl)-1,4-dihydro-3(2H)-quinazolinyl]hexanoyl}amino)propanoic acid] was tested. Which IC50 did it give?
**A.** Its IC50 is 100 nM.

same assay, conditions: Table 4; Ramos cell adhesion to CS1-conjugated ovalbumin, 30 minutes at 37° C.

**Q.** Which IC50 does the source give for `CCCCC(C(=O)N[C@@H](C(=O)O)c1ccccc1)n1cc(C)cc(Cc2ccccc2)c1=O` (stereo partly drawn) [(2R)-2-({2-[5-methyl-2-oxo-3-(phenylmethyl)-1(2H)-pyridinyl]hexanoyl}amino)-2-phenylethanoic acid] here?
**A.** The IC50 was over 10000 nM.

**Q.** `CCCCC(C(=O)N[C@H](Cc1ccccc1)C(=O)O)n1cc(C)cc(Cc2ccccc2)c1=O` (stereo partly drawn) [(2R)-2-({2-[5-methyl-2-oxo-3-(phenylmethyl)-1(2H)-pyridinyl]hexanoyl}amino)-3-phenylpropanoic acid] was tested. Which IC50 did it give?
**A.** Its IC50 is 5000 nM.

**Q.** With `CCCCC(C(=O)N[C@@H](Cc1ccccc1)C(=O)O)n1cc(C)cc(Cc2ccccc2)c1=O` (stereo partly drawn) [(2S)-2-({2-[5-methyl-2-oxo-3-phenylmethyl)-1(2H)-pyridinyl]hexanoyl}amino)-3-phenylpropanoic acid] as the compound, how does the IC50 read?
**A.** The IC50 was over 10000 nM.
